Legend:
[1] = tested on: Neonatal cardiac fibroblasts (NHFs); assay: Collagen synthesis by neonatal cardiac fibroblasts, Western blotting; format: cell-based, rat
Text: Isolation and treatment of Neonatal Cardiac Fibroblasts with Cx43 based peptides (peptides used included ACT1, JM1, JM2, Antennapedia [ANT], reverse ACT1 [Rev], poly Arginine [poly r]). Said peptides with and without internalization vectors can be loaded into the provided EVs and can elicit results similar to those observed for naked peptide as follows. Neonatal cardiac fibroblasts (NHFs) were isolated from 3-4 day old rat hearts by collagenase digestion (100 U/mL) and differential attachment as previously described (Borg et ah, 1984). All cells were maintained in Dulbecco's Modified Eagle Medium (DMEM) supplemented with 10% Fetal Bovine Serum and 100 U/mL penicillin G and 100 μg/mL streptomycin and used prior to passage four. For experiments, 40,000 NHFs were plated into the wells of a 24-well tissue culture plate and grown for 24-48 hours. On the day of treatment, media was removed from each well and replaced with fresh media containing 50 μg/mL L-ascorbic acid-2-phosphate; Sigma Chemical Co., St. Louis, MO). The appropriate volume of each peptide (resuspended in sterile, deionized 18 MQ resistivity water) was added to achieve the desired final concentration (30, 90, 180 µM peptide concentrations were tested). Culture plates were incubated overnight in a 37° C. incubator with 5% C02.
Protein Isolation and Examination of Collagen Synthesis by Western Blotting. Conditioned culture media was collected from each well and stored at −20° C. for analysis of soluble collagen. Cellular protein, including insoluble collagen and collagen still within the NHFs, were isolated by adding 100-200 μL, of cell lysis buffer (0.01 M Tris, pH 7.4, 0.001 M Sodium Orthovanadate, 1% sodium dodecylsulfate [SDS]) to each well and incubating 10 minutes at room temperature. Prior to addition, cell lysis buffer was warmed to facilitate solubilization of SDS and 100 u L of Halt protease inhibitor (Pierce Biotechnology, Rockford, IL) was added per 10 mL buffer to be used. After incubation, the well bottoms were scraped and liquid transferred to a microcentrifuge tube for storage at −20° C. Protein concentrations of cell lysates were determined using a Micro BCA assay (Pierce). SDS-PAGE samples were prepared by combining either 10 μg of cell lysate or 30 μL of conditioned media with XT loading buffer (BioRad, Hercules, CA), dithiothreitol and boiled for five minutes. Samples were loaded onto 3-8% Tris-Acetate Criterion X T gels (BioRad, Hercules, CA) and proteins separated at 140V. After electrophoresis, proteins were transferred onto […] nitrocellulose membranes (BioRad) overnight at room temperature (Transfer buffer: 25 mM Tris, 192 mM Glycine, 20% Methanol, 0.01% SDS). The presence of collagen was determined by probing the membranes with a rabbit anti-mouse collagen type I antibody (MD Biosciences) at 1:20,000 dilution in blocking buffer (5% milk in Tris-buffered saline) followed by a goat anti-rabbit IgG horseradish peroxidase conjugated antibody at 1:100,000 (Southern Biotech Associates) and detection with Pierce SuperSignal Femto West detection reagent (Pierce). To assess the activity of JM1 and JM2 peptides with respect to collagen production and their potential in mediating wound healing, cardiac fibroblasts were treated with these two peptides and their effectiveness compared to that for the previous described Cx43 peptide ACT1. NHFs were treated with various concentrations of JM1, JM2, ACT1, and ANT (Antennapedia) peptides, vehicle (water) or left untreated and the production of collagen both in the culture media and cell-associated collagen assessed by western blotting. […] To evaluate the impact of the poly-Arginine (poly-r)N-terminal sequence on JM1 and Jm2 activity, NHF cells were treated with a poly-r peptide.

Cx43 Y313-A348 peptide [2] = target: T1, Cx43 Y313-A348 peptide (Rattus norvegicus, UniProt P08050); assay: SPR of captured aCT1 with Cx43 Y313-A348 peptide; format: binding; settings: unlinked Cx43 Y313-A348 peptide (25 µM)
T1 construct: made in house; host or cells: chemical synthesis
T1 sequence (P08050 with tags, fused parts or gaps): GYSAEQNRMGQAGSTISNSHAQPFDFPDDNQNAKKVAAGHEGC
Method: (§1) FIGS. 28A-28D. […] (FIG. 28B) Schematic representation of the Cx43 Y313-A348 peptide synthesized for a binding surface surrogate 1 with linkable cysteine (Cys) on the amino terminus and CT. (FIG. 28C) Single letter amino acid sequence of Cx43 Y313-A348 peptide with predicted helix secondary structure underlined. (FIG. 28D) Surface Plasmon Resonance (SPR) analysis of substrate captured aCT1 (700-1000 RUs) binding recombinant Cx43 CT (100 µM, light grey), unlinked Cx43 Y313-A348 peptide (25 µM, black), and disulfide linked Cx43 Y313-A348 (25 µM, dark grey). […] Disulfide cross-linking Cx43 Y313-A348 into a looped conformation results in a loss of aCT1 binding, thus aCT1 interaction with this peptide requires a degree conformational flexibility. Cx43 Y313-A348 peptide can provide an assay for screening for novel Cx43 interacting drugs.
(§2) A […] peptide mimetic encompassing amino acids Y313 through A348 of the Cx43 CT was synthesized, containing the H1 and H2 a-helical regions (FIGS. 28A-28D). […] Cx43 Y313-A348 was designed to have cysteines at its NT and CT, which were used to disulfide cross-link the peptide into a cyclized conformation (FIG. 28B). […]

Cx43 Y313-A348 peptide [3] = assay: SPR of captured aCT1 with Cx43 Y313-A348 peptide; format: binding; settings: disulfide linked Cx43 Y313-A348 (25 µM)
Method: as §1, §2

[4] = aqueous solutions; cited from earlier work
silicone implants = settings: days 1, 2, 3, 14, and 28; cited from earlier work
Cx43-HeLa = format: cell-based
Method: The first tests of JM1 and JM2 were performed and the experiments centered on the basic cell biology of the peptides.

Sequence | mature type I collagen in conditioned media ([1]; 30, 90, 180 µM) | SPR interaction (Cx43 Y313-A348 peptide [2]) | SPR interaction (Cx43 Y313-A348 peptide [3]) | period of slow release of detectable levels of peptide [4] | wound-healing and foreign body responses (silicone implants) | mature type I collagen in conditioned media ([1]; 180 μM) | collagen produced versus poly-r peptide ([1]; about 90 μM) | mature type I collagen in cell lysate ([1]; versus ACT1 peptide) | toxicity (cell death) (Cx43-HeLa) | confluence (Cx43-HeLa; 24 hours)
RQPKIWFPNRRKPWKKRPRPDDLEI [alpha CT1] | dose-dependent reduction in the secretion of mature, fully processed collagen | levels of interaction with aCT1 comparable to the full Cx43 CT sequence | complete loss of aCT1 binding | at least 7 days | attenuating neutrophil infiltration, increasing vascularity of the capsule tissue, reducing type I collagen deposition around the implant, and reducing the continued presence of contractile myofibroblasts | – | – | – | – | –
VFFKGVKDRVKGRSD [JM2] | dose-dependent decrease in the production of mature, type I collagen | – | – | – | – | no mature type I collagen was detected | less than half of that produced by cells treated with the poly-r peptide | more profound reduction in the amount of mature type I collagen | no obvious toxicity | more confluent than control cells
